{
  "source": "patent US20230167073A1",
  "about": "(Teijin Pharma Limited, priority 2020, published 2023)",
  "data": [
    {"target": "T1, Human TRPC6 (Homo sapiens, UniProt Q9Y210)", "T1 construct": "expressed in transfected cells", "T1 sequence (Q9Y210 1-931)": "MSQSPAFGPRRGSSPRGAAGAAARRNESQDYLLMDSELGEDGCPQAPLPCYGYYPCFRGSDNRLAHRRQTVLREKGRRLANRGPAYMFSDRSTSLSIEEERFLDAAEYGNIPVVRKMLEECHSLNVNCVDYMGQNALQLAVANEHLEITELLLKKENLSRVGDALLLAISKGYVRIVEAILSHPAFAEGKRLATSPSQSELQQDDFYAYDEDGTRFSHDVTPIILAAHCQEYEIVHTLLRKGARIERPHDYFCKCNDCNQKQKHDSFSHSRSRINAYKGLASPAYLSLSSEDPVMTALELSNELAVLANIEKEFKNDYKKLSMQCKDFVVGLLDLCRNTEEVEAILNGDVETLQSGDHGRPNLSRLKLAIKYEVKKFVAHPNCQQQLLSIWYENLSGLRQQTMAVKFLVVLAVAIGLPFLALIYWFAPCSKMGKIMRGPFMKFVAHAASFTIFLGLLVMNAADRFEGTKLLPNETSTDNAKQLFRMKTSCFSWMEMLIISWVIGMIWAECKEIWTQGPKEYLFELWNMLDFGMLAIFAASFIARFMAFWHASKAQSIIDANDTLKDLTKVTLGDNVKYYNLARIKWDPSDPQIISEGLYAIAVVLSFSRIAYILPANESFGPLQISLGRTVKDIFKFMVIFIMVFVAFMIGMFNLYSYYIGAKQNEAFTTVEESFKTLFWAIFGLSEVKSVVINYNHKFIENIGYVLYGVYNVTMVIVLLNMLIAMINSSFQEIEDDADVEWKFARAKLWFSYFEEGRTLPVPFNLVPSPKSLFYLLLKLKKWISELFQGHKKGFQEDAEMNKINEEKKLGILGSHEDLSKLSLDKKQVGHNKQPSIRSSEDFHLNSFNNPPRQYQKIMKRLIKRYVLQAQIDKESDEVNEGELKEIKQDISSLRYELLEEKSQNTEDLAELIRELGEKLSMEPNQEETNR", "experiment": "Evaluation of TRPC6 channel inhibitory activity (1), FLIPR Calcium 5 Assay Kit, OAG stimulation (Compound Nos. 1-1293)", "assay_type": "cell-based", "details": "Human TRPC6 stably-expressing cells, OAG 30 μM, FLIPR Calcium 5 Assay Kit; read-out: Inhibitory activity (pIC50 class) (converted)", "outline": "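The FLIPR signal is maximum fluorescence after 30 μM OAG minus minimum before compound, measured in a human TRPC6 stable line loaded with Calcium 5 dye. Compounds were preincubated 20 min. pIC50 came from four-parameter logistic fitting of inhibition rates and is given as symbol ranges.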", "units": {"IC50": "nM"}, "values": [
      {"smiles": "N#Cc1ccc(-c2ccc(CCN)cc2)c(Oc2sc(N3CCCCC3)nc2C(F)(F)F)c1", "note": "[compound 785, 4-[4-(2-aminoethyl)phenyl]-3-[[2-piperidin-1-yl-4(trifluoromethyl)-1,3-thiazol-5-yl]oxy]benzonitrile]", "IC50": "10 to 1000"},
      {"smiles": "N#Cc1ccc(-c2ccc(CCN)cc2)c(Oc2cc(-c3ccccc3)no2)c1", "note": "[compound 306, 4-[4-(2-aminoethyl)phenyl]-3-[(3-phenyl-1,2-oxazol-5-yl)oxy]benzonitrile]", "IC50": "< 10"},
      {"smiles": "Cc1nc(Oc2cc(C#N)ccc2-n2cc([C@@H](O)CN)cn2)cc(N2CCC(F)(F)C2)n1", "note": "[Compound 252, 4-[4-[(1R)-2-amino-1-hydroxyethyl]pyrazol-1-yl]-3-[6-(3,3-difluoropyrrolidin-1-yl)-2-methylpyrimidin-4-yl]oxybenzonitrile]", "IC50": "> 1000"},
      {"smiles": "CN(C)c1cc(Cc2cc(C#N)ccc2-c2ccc(CCN)cn2)n(C)n1", "note": "[compound 1217, 4-[5-(2-aminoethyl)pyridin-2-yl]-3-[[5-(dimethylamino)-2-methylpyrazol-3-yl]methyl]benzonitrile]", "IC50": "< 10"},
      {"smiles": "N#Cc1ccc(-c2ccc(CCN)cn2)c(Cn2cnc(-c3ccccc3)c2)c1", "note": "[Compound No. 1131, 4-[5-(2-Aminoethyl)pyridin-2-yl]-3-[(4-phenylimidazol-1-yl)methyl]benzonitrile]", "IC50": "< 10"},
      {"smiles": "Cn1nc(-c2ccccc2)cc1Oc1cc(C#N)ccc1-c1ccc(CCNC2COC2)cn1", "note": "[Compound 207, 3-(2-methyl-5-phenylpyrazol-3-yl)oxy-4-[5-[2-(oxetan-3 ylamino)ethyl]pyridin-2-yl]benzonitrile]", "IC50": "10 to 1000"},
      {"smiles": "Cc1c(Oc2cc(F)ccc2-c2ncc(CCN)cn2)cnn1-c1ccccn1", "note": "[compound 971, 2-[2-[4-fluoro-2-(5-methyl-1-pyridin-2-ylpyrazol-4-yl)oxyphenyl]pyrimidin-5-yl]ethanamine]", "IC50": "> 1000"},
      {"smiles": "Cc1nc(Oc2cc(C#N)ccc2-c2ccc(CCN)cc2)cc(-c2ccnn2C)n1", "note": "[Compound 20, 4-[4-(2-aminoethyl)phenyl]-3-[2-methyl-6-(2-methylpyrazol-3-yl)pyrimidin-4-yl]oxybenzonitrile]", "IC50": "10 to 1000"},
      {"smiles": "CN(C)c1cc(Oc2cc(C#N)ccc2-c2ncc(CN)cn2)cnn1", "note": "[compound 716, 4-[5-(aminomethyl)pyrimidin-2-yl]-3-[6-(dimethylamino)pyridazin-4-yl]oxybenzonitrile]", "IC50": "10 to 1000"},
      {"smiles": "Cn1nc(C(C)(C)C)cc1Oc1cc(C#N)ccc1-c1ncc(CCN)cn1", "note": "[compound 367, 4-[5-(2-aminoethyl)pyrimidin-2-yl]-3-(5-tert-butyl-2-methylpyrazol-3-yl)oxybenzonitrile]", "IC50": "< 10"},
      {"smiles": "CNC[C@H](O)c1cnn(-c2ccc(C#N)cc2Oc2cc(-c3ccccc3)nc(C)n2)c1", "note": "[Compound 231, 4-[4-[(1R)-1-hydroxy-2-(methylamino)ethyl]pyrazol-1-yl]-3-(2-methyl-6-phenylpyrimidin-4-yl)oxybenzonitrile]", "IC50": "< 10"},
      {"smiles": "Cc1c(Oc2cc(C#N)ccc2-c2ncc(CCN)cn2)cnn1CC(C)C", "note": "[compound 804, 4-[5-(2-aminoethyl)pyrimidin-2-yl]-3-[5-methyl-1-(2-methylpropyl)pyrazol-4-yl]oxybenzonitrile]", "IC50": "10 to 1000"},
      {"smiles": "Cc1cc(C(=O)c2cc(F)ccc2-c2ncc(CCN)cn2)cc(N2CCOCC2)n1", "note": "[compound 1097, [2-[5-(2-aminoethyl)pyrimidin-2-yl]-5-fluorophenyl]-(2-methyl-6-morpholin-4-ylpyridin-4-yl)methanone]", "IC50": "< 10"},
      {"smiles": "Cc1nc(Oc2cc(C#N)ccc2-c2csc(C(O)CN)n2)cc(-c2ccccc2)n1", "note": "(stereo not shown) [Compound 195, 4-[2-(2-amino-1-hydroxyethyl)-1,3-thiazol-4-yl]-3-(2-methyl-6-phenylpyrimidin-4-yl)oxybenzonitrile]", "IC50": "10 to 1000"},
      {"smiles": "Cn1nc(N)cc1Oc1cc(C#N)ccc1-c1ccc([C@H](O)CN)cn1", "note": "[compound 576, 4-[5-[(1S)-2-amino-1-hydroxyethyl]pyridin-2-yl]-3-(5-amino-2-methylpyrazol-3-yl)oxybenzonitrile]", "IC50": "> 1000"},
      {"smiles": "N#Cc1ccc(-c2ncc(CCN)cn2)c(Sc2cnnc(N3CCCCC3)c2)c1", "note": "[compound 1258, 4-[5-(2-aminoethyl)pyrimidin-2-yl]-3-(6-piperidin-1-ylpyridazin-4-yl)sulfanylbenzonitrile]", "IC50": "< 10"},
      {"smiles": "Cc1nc(CN2CCC(C(F)(F)F)CC2)cn1Cc1cc(C#N)ccc1-c1ncc(CCN)cn1", "note": "[compound 1180, 4-[5-(2-aminoethyl)pyrimidin-2-yl]-3-[[2-methyl-4-[[4-(trifluoromethyl)piperidin-1-yl]methyl]imidazol-1-yl]methyl]benzonitrile]", "IC50": "> 1000"},
      {"smiles": "Cn1nc(C2CC2)cc1Oc1cc(C#N)ccc1-c1ncc(OCCN)cn1", "note": "[compound 385, 4-[5-(2-aminoethoxy)pyrimidin-2-yl]-3-(5-cyclopropyl-2-methylpyrazol-3-yl)oxybenzonitrile]", "IC50": "10 to 1000"},
      {"smiles": "Cc1ccccc1-c1cc(Oc2cc(C#N)ccc2-c2ccc([C@@H](O)CN)cn2)n(C)n1", "note": "[compound 378, 4-[5-[(1R)-2-amino-1-hydroxyethyl]pyridin-2-yl]-3-[2-methyl-5-(2-methylphenyl)pyrazol-3-yl]oxybenzonitrile]", "IC50": "< 10"},
      {"smiles": "Cn1nc(-c2ccccn2)cc1Oc1cc(C#N)ccc1-c1ncc(CNC2CC2)cn1", "note": "[compound 662, 4-[5-[(cyclopropylamino)methyl]pyrimidin-2-yl]-3-(2-methyl-5-pyridin-2-ylpyrazol-3-yl)oxybenzonitrile]", "IC50": "10 to 1000"},
      {"smiles": "Cc1cc(Oc2cc(C#N)ccc2-c2ccc(C(=O)CN)cc2)cc(-c2ccccc2)n1", "note": "[Compound 201, 4-[4-(2-aminoacetyl)phenyl]-3-(2-methyl-6-phenylpyridin-4-yl)oxybenzonitrile]", "IC50": "> 1000"},
      {"smiles": "Cc1nc(Oc2cc(C#N)ccc2-c2ccc(C(O)CN)c(C(F)(F)F)c2)cc(N2CCOCC2)n1", "note": "(stereo not shown) [Compound 151, 4-[4-(2-amino-1-hydroxyethyl)-3-(trifluoromethyl)phenyl]-3-(2-methyl-6-morpholin-4-ylpyrimidin-4-yl)oxybenzonitrile]", "IC50": "10 to 1000"},
      {"smiles": "CCN(CC(F)F)c1cc(C(=O)c2cc(C#N)ccc2-c2ncc(CCN)cn2)n(C)n1", "note": "[compound 1073, 4-[5-(2-aminoethyl)pyrimidin-2-yl]-3-[5-[2,2-difluoroethyl(ethyl)amino]-2-methylpyrazole-3-carbonyl]benzonitrile]", "IC50": "< 10"},
      {"smiles": "Cc1cc(Oc2cc(C#N)ccc2-c2ncc([C@H](O)CN)cn2)cc(N2CCCCC2)n1", "note": "[compound 501, 4-[5-[(1S)-2-amino-1-hydroxyethyl]pyrimidin-2-yl]-3-(2-methyl-6-piperidin-1-ylpyridin-4-yl)oxybenzonitrile]", "IC50": "< 10"},
      {"smiles": "Cc1cc(Oc2cc(C#N)ccc2-c2ccc(C(N)C#N)cn2)cc(N2CCOCC2)n1", "note": "(stereo not shown) [compound 423, 4-[5-[amino(cyano)methyl]pyridin-2-yl]-3-(2-methyl-6-morpholin-4-ylpyridin-4-yl)oxybenzonitrile]", "IC50": "10 to 1000"},
      {"smiles": "CN(C(=O)C1CCNCC1)c1ccc(-c2ccc(C#N)cc2Oc2cc(C3CC3)nn2C)nc1", "note": "[compound 782, N-[6-[4-cyano-2-(5-cyclopropyl-2-methylpyrazol-3-yl)oxyphenyl]pyridin-3-yl]-N-methylpiperidine-4-carboxamide]", "IC50": "> 1000"},
      {"smiles": "Cc1cc(Oc2cc(C#N)ccc2-c2ccc([C@H](O)CN)cn2)cc(N2C[C@@H]3C[C@H]2CO3)n1", "note": "[compound 527, 4-[5-[(1S)-2-amino-1-hydroxyethyl]pyridin-2-yl]-3-[2-methyl-6-[(1S,4S)-2-oxa-5-azabicyclo[2.2.1]heptan-5-yl]pyridin-4-yl]oxybenzonitrile]", "IC50": "< 10"},
      {"smiles": "Cc1cc(Oc2cc(C#N)ccc2-c2ccc(CCN)cn2)n(C)n1", "note": "[compound 299, 4-[5-(2-aminoethyl)pyridin-2-yl]-3-(2,5-dimethylpyrazol-3-yl)oxybenzonitrile]", "IC50": "< 10"},
      {"smiles": "CC(C)CNc1cc(Oc2cc(C#N)ccc2-c2ncc(CN)cn2)cnn1", "note": "[compound 765, 4-[5-(aminomethyl)pyrimidin-2-yl]-3-[6-(2-methylpropylamino)pyridazin-4-yl]oxybenzonitrile]", "IC50": "< 10"},
      {"smiles": "Cn1nc(C2CC2)cc1Oc1cc(C#N)ccc1-c1ccc(CN2CCNCC2)cn1", "note": "[compound 779, 3-(5-cyclopropyl-2-methylpyrazol-3-yl)oxy-4-[5-(piperazin-1-ylmethyl)pyridin-2-yl]benzonitrile]", "IC50": "> 1000"},
      {"smiles": "N#Cc1ccc(-c2ccc(C(N)C(=O)O)cn2)c(Oc2cnnc(-c3ccccc3)c2)c1", "note": "(stereo not shown) [compound 433, 2-amino-2-[6-[4-cyano-2-(6-phenylpyridazin-4-yl)oxyphenyl]pyridin-3-yl]acetic acid]", "IC50": "10 to 1000"}
    ]}
  ]
}
